US11912703B2, “6-azaindole compounds” (BRISTOL-MYERS SQUIBB COMPANY, priority 2017, dated 2024)
Like-named read-outs stand apart in the source and are kept apart here.

Key:
[1] = molecular target: human TLR7 (Homo sapiens (Human), UniProt Q9NYK1); test: TLR7 inhibition reporter assay (HEK-Blue SEAP); type: cell-based; details: HEK-Blue cells overexpressing human TLR7, gardiquimod 7.5 μM stimulation
[2] = molecular target: human TLR9 (Homo sapiens (Human), UniProt Q9NR96); test: TLR9 inhibition reporter assay (HEK-Blue SEAP);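 also: SEAP driven by IFN-β minimal promoter carrying five NF-κB and AP-1 sites, 22 h at 37 °C, compounds 0.05 nM–50 µM, inhibition scaled between agonist-plus-DMSO and reference-inhibitor wells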
human TLR9, sequence (Q9NR96 26-1032): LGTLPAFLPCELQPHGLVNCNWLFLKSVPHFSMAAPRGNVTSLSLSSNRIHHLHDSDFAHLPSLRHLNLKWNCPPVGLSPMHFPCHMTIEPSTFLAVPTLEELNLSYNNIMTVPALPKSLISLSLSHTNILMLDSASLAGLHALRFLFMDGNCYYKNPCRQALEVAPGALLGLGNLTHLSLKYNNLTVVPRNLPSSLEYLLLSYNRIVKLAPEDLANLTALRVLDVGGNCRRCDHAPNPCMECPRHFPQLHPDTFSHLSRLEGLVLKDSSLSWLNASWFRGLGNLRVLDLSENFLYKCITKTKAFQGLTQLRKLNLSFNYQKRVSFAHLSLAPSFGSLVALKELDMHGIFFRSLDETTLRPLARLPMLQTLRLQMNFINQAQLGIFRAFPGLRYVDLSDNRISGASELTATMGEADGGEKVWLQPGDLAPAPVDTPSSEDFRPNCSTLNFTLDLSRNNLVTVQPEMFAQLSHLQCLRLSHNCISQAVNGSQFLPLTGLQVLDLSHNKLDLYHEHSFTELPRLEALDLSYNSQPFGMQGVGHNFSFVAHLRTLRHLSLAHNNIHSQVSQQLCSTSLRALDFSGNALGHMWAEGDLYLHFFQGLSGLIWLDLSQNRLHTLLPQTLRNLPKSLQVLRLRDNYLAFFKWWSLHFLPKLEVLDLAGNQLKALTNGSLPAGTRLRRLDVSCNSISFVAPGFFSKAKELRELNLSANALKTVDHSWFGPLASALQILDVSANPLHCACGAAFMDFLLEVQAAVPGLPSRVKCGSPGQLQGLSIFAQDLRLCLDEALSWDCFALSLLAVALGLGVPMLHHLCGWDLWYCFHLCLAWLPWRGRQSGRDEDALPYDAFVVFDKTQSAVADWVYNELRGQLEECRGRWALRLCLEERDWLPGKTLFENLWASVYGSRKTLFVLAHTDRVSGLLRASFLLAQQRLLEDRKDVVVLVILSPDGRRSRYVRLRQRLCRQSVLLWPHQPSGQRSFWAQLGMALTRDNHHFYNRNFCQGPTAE

[3] = molecular target: human TLR8 (Homo sapiens (Human), UniProt Q9NR97); test: TLR8 inhibition reporter assay (HEK-Blue SEAP);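 also: SEAP driven by IFN-β minimal promoter with five NF-κB and AP-1 sites, compounds tested 0.05 nM to 50 µM, 22 h incubation, inhibition relative to agonist plus DMSO wells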
human TLR8, sequence (Q9NR97 27-1041): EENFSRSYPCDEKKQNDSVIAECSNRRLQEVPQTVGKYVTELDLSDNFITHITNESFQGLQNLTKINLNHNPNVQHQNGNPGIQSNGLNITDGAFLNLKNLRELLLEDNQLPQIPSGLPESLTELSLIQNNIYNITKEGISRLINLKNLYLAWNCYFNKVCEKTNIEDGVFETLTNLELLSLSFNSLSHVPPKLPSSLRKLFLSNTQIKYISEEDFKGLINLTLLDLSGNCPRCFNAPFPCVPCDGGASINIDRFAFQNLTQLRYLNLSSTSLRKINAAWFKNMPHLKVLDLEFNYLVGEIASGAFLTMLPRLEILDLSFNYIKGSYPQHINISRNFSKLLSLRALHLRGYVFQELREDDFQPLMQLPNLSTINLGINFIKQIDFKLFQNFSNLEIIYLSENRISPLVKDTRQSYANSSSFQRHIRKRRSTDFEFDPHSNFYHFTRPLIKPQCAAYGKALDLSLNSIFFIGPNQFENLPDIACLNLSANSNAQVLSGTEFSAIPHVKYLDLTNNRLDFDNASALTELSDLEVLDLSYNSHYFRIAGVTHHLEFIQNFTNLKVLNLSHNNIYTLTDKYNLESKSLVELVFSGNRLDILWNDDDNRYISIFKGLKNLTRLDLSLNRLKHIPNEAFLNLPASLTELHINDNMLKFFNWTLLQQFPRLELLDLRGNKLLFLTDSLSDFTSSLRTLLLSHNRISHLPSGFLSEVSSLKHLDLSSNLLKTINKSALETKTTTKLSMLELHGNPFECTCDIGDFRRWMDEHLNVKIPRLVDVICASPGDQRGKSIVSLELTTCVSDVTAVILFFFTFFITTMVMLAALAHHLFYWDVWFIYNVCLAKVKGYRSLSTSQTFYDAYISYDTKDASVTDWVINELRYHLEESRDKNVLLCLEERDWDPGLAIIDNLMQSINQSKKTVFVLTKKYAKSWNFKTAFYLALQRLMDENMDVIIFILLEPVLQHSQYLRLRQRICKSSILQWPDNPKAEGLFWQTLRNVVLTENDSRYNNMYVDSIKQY
Procedure: HEK-Blue™-cells (Invivogen) overexpressing human TLR7, TLR8 or TLR9 receptors were used for screening inhibitors of these receptors using an inducible SEAP (secreted embryonic alkaline phosphatase) reporter gene under the control of the IFN-β minimal promoter fused to five NF-κB and AP-1-binding sites. Briefly, cells are seeded into Greiner 384 well plates (15000 cells per well for TLR7, 20,000 for TLR8 and 25,000 for TLR9) and then treated with test compounds in DMSO to yield a final dose response concentration range of 0.05 nM-50 μM. After a 30 minute compound pre-treatment at room temperature, the cells are then stimulated with a TLR7 ligand (gardiquimod at a final concentration of 7.5 μM), TLR8 ligand (R848 at a final concentration of 15.9 μM) or TLR9 ligand (ODN2006 at a final concentration of 5 nM) to activate NF-κB and AP-1 which induce the production of SEAP. After a 22 hour incubation at 37° C., 500 CO2, SEAP levels are determined with the addition of HEK-Blue™ Detection reagent (Invivogen), a cell culture medium that allows for detection of SEAP, according to manufacturer's specifications.

[4] = read-out: TLR9 IC50; HEK-Blue cells overexpressing human TLR9, ODN2006 5 nM stimulation, SEAP reporter
[5] = read-out: TLR8 IC50; HEK-Blue cells overexpressing human TLR8, R848 15.9 μM stimulation, SEAP reporter
[6] = read-out: TLR9 IC50; HEK-Blue cells overexpressing human TLR9; ODN2006 5 nM stimulation; SEAP reporter
[7] = read-out: TLR8 IC50; HEK-Blue cells overexpressing human TLR8; R848 15.9 μM stimulation; SEAP reporter

human TLR7, sequence (Q9NYK1 27-1049): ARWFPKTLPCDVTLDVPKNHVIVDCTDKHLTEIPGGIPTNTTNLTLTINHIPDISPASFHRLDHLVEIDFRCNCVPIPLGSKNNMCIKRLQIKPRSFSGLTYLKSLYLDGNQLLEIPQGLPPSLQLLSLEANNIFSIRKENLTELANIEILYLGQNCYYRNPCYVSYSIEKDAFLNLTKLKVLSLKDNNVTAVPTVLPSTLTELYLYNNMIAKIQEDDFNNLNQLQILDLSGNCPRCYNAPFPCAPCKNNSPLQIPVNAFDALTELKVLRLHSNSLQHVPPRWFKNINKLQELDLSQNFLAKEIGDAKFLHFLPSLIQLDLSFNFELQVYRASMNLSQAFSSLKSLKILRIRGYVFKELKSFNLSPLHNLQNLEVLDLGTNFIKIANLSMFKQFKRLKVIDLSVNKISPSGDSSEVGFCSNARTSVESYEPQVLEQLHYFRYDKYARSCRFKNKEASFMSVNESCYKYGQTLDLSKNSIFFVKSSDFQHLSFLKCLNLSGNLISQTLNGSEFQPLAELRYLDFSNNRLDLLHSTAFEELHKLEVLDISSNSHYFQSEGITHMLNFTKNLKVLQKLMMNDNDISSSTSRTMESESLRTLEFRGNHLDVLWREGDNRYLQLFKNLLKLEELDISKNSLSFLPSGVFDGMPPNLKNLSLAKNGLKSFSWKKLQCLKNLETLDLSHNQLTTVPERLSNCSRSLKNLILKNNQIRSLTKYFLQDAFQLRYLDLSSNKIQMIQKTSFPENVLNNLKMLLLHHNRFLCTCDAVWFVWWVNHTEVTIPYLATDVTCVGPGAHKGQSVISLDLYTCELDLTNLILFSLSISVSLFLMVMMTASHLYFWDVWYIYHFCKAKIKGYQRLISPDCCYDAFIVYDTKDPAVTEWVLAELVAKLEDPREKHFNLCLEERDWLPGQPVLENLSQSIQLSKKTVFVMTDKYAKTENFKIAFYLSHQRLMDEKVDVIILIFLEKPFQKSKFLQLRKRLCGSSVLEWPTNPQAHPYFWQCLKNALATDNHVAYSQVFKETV

| IC50 [1] [nM] | IC50 [2, 4] [nM] | IC50 [3, 5] [nM] | IC50 [2, 6] [nM] | IC50 [3, 7] [nM] | Structure (SMILES) |
| --- | --- | --- | --- | --- | --- |
| 9.9 | 2580 | 11 | – | – | COc1cc(-c2[nH]c3cnc(N4CC5(C4)CN(C4CCC4)C5)c(F)c3c2C(C)C)cn2ncnc12 [Example 381] |
| 35 | > 50000 | 37 | – | – | CC(=O)N1CCN(c2ncc3[nH]c(-c4cn5ncnc5c(C)c4C)c(C(C)C)c3c2F)CC1 [Example 427] |
| 16 | > 50000 | 13 | – | – | Cc1c(-c2[nH]c3cnc(N4CCN(C5COC5)CC4)c(C)c3c2C(C)C)cn2ncnc2c1C [Example 417, 6-(3-isopropyl-4-methyl-5-(4-(oxetan-3-yl)piperazin-1-yl)-1H-pyrrolo[2,3-c]pyridin-2-yl)-7,8-dimethyl-[1,2,4]triazolo[1,5-a]pyridine] |
| 42 | 648 | 35 | – | – | COc1cc(-c2[nH]c3cnc(C4CCC(NC5COC5)C4)cc3c2C(C)C)cn2ncnc12 (stereo not drawn) [Example 274] |
| 11 | 345 | 5.4 | – | – | Cc1c(-c2[nH]c3cnc(C4CCC(NCC(C)(C)C)CC4)cc3c2C(C)C)cn2ncnc2c1C (stereo not drawn) [Example 351] |
| 3.5 | 468 | 9 | – | – | COCCNC1CCC(c2cc3c(C(C)C)c(-c4cn5ncnc5c(C)c4C)[nH]c3cn2)CC1 (stereo not drawn) [Example 348] |
| 2.7 | 5390 | 0.31 | – | – | COc1cc(-c2[nH]c3cnc(N4CCN(CC5CCOCC5)CC4)c(F)c3c2C(C)C)cn2ncnc12 [Example 383] |
| 159 | > 50000 | 52 | – | – | COc1cc(-c2[nH]c3cnc(N4CC5(CN(C(=O)CN6CCOCC6)C5)C4)c(F)c3c2C(C)C)cn2ncnc12 [Example 367, 1-(6-(4-fluoro-3-isopropyl-2-(8-methoxy-[1,2,4]triazolo[1,5-a]pyridin-6-yl)-1H-pyrrolo[2,3-c]pyridin-5-yl)-2,6-diazaspiro[3.3]heptan-2-yl)-2-morpholinoethan-1-one] |
| 3.2 | 4770 | 3.4 | – | – | Cc1cc(-c2[nH]c3cnc(C4CCN(CC5(C)COC5)CC4)c(F)c3c2C(C)C)cn2ncnc12 [Example 250] |
| 3.1 | 29100 | 4.7 | – | – | CNC(=O)CN1CCN(c2ncc3[nH]c(-c4cc(OC)c5ncnn5c4)c(C(C)C)c3c2Cl)CC1 [Example 293] |
| 4.8 | – | – | 12600 | 11 | COc1cc(-c2[nH]c3cnc(N4CCN(C5CCOCC5)C[C@H]4C)c(F)c3c2C(C)C)cn2ncnc12 [Example 452] |
| 11 | > 50000 | 62 | – | – | COc1cc(-c2[nH]c3cnc(N4CCN(C5COC5)C[C@H]4C)c(F)c3c2C(C)C)cn2ncnc12 [Example 440] |
| 10 | – | – | > 50000 | 4.4 | Cc1c(-c2[nH]c3cnc(N4CCN(CC(C)C)C[C@H]4C)c(F)c3c2C(C)C)cn2ncnc2c1C [Example 460] |
| 1.1 | 1070 | 0.97 | – | – | Cc1c(N2CCC(N3CCOCC3)CC2)ncc2[nH]c(-c3cc(C)c4ncnn4c3)c(C(C)C)c12 [Example 282] |
| 47 | 35400 | 828 | – | – | Cc1c(-c2[nH]c3cnc(N4CC5(CN(C)C5)C4)c(F)c3c2C(C)C)cn2ncnc2c1C [Example 407] |
| 1.1 | – | – | 1970 | 1.5 | Cc1c(-c2[nH]c3cnc(N4CCN(C5CCN(C(C)C)CC5)C[C@H]4C)c(F)c3c2C(C)C)cn2ncnc2c1C [Example 462] |
| > 3120 | 2680 | > 3120 | – | – | Cc1cc(-c2[nH]c3cnc(N4CCNCC4)cc3c2C(C)C)cn2ncnc12 [Example 301] |
| 14 | 1220 | 78 | – | – | Cc1c(-c2[nH]c3cnc(C4CCC(NC(C)C)CC4)cc3c2C(C)C)cn2ncnc2c1C (stereo not drawn) [Example 326] |
| 13 | > 50000 | 25 | – | – | CNC(=O)CN1CCN(c2ncc3[nH]c(-c4cc(OC)c5ncnn5c4)c(C(C)C)c3c2F)[C@H](C)C1 [Example 445] |
| 1.4 | 1080 | 4.7 | – | – | Cc1c(-c2[nH]c3cnc(C4CCC(NCC(F)F)CC4)cc3c2C(C)C)cn2ncnc2c1C (stereo not drawn) [Example 350] |
| 18 | > 50000 | 21 | – | – | COc1cc(-c2[nH]c3cnc(N4CCN(CC(=O)N(C)C)C[C@H]4C)c(F)c3c2C(C)C)cn2ncnc12 [Example 446] |
| 26 | > 50000 | 6.8 | – | – | COc1cc(-c2[nH]c3cnc(N4CCN(C5CCCOC5)CC4)c(F)c3c2C(C)C)cn2ncnc12 (single isomer, unassigned) [Example 386] |
| 2.2 | 2860 | 2.2 | – | – | CCN(CCC#N)C1CCN(c2ncc3[nH]c(-c4cc(C)c5ncnn5c4)c(C(C)C)c3c2C)CC1 [Example 286] |
| 16 | > 50000 | 12 | – | – | Cc1c(-c2[nH]c3cnc(N4CCN(C(=O)CN5CCOCC5)CC4)c(F)c3c2C(C)C)cn2ncnc2c1C [Example 421] |
| 5.4 | – | – | 9020 | 1.5 | Cc1c(-c2[nH]c3cnc(N4CCN(C(C)C)C[C@H]4C)c(F)c3c2C(C)C)cn2ncnc2c1C [Example 461] |
| 0.77 | 6020 | 0.35 | – | – | Cc1cc(-c2[nH]c3cnc(N4CCC(NCC(C)(C)O)CC4)c(F)c3c2C(C)C)cn2ncnc12 [Example 258] |
| 5.7 | 396 | 6.8 | – | – | CCN(C)C1CCC(c2cc3c(C(C)C)c(-c4cc(OC)c5ncnn5c4)[nH]c3cn2)C1 (stereo not drawn) [Example 248] |

Second part, the compound before the results:

| Structure (SMILES) | IC50 [1] [nM] | IC50 [2, 4] [nM] | IC50 [3, 5] [nM] | IC50 [2, 6] [nM] | IC50 [3, 7] [nM] |
| --- | --- | --- | --- | --- | --- |
| COc1cc(-c2[nH]c3cnc(C4CCN(CCS(C)(=O)=O)CC4)c(F)c3c2C(C)C)cn2ncnc12 [Example 14] | 3.9 | 13000 | 3.4 | – | – |
| COc1cc(-c2[nH]c3cnc(N4CCC(NCC5(C)COC5)CC4)c(F)c3c2C(C)C)cn2ncnc12 [Example 67] | 9.1 | 5800 | 11 | – | – |
| COc1cc(-c2[nH]c3cnc(C4CCN(C(C)C)CC4)c(C)c3c2C(C)C)cn2ncnc12 [Example 33] | 1.4 | 134 | 6.9 | – | – |
| COc1cc(-c2[nH]c3cnc(C4CCC(NC(C)C)CC4)c(F)c3c2C(C)C)cn2ncnc12 (stereo not drawn) [Example 73] | 0.87 | 2960 | 0.77 | – | – |
| Cc1c(-c2[nH]c3cnc(C4CCN(C(=O)CN(C)C)CC4)cc3c2C(C)C)cn2ncnc2c1C [Example 36] | 19 | 208 | 48 | – | – |
| Cc1cc(-c2[nH]c3cnc(C4CCN(CC(C)(C)O)CC4)c(F)c3c2C(C)C)cn2ncnc12 [Example 128] | 1.9 | 2480 | 1.4 | – | – |
| Cc1c(-c2[nH]c3cnc(C4CCC(NC5COC5)CC4)c(F)c3c2C(C)C)cn2ncnc2c1C (stereo not drawn) [Example 174] | 0.78 | 7720 | 0.67 | – | – |
| Cc1cc(-c2[nH]c3cnc(C4CCN(CC(=O)N(C)C)CC4)c(F)c3c2C(C)C)cc(C)n1 [Example 153] | 8.8 | 3830 | 5.2 | – | – |
| COc1cc(-c2[nH]c3cnc(N4CCC(NC[C@@H](F)C(C)(C)O)CC4)c(C)c3c2C(C)C)cn2ncnc12 [Example 64] | 4.2 | 2790 | 1.5 | – | – |
| COc1cc(-c2[nH]c3cnc(C4CCC(NC5COC5)CC4)c(F)c3c2C(C)C)cn2ncnc12 (stereo not drawn) [Example 223] | 2.7 | – | – | 1110 | 2.4 |
| Cc1c(-c2[nH]c3cnc(C4CCNCC4)cc3c2C(C)C)cn2ncnc2c1C [Example 28] | 13 | 608 | 26 | – | – |
| Cc1c(N2CCC(NC34CC(C3)C4)CC2)ncc2[nH]c(-c3cc(C)c4ncnn4c3)c(C(C)C)c12 [Example 148] | 1.1 | 1170 | 1.7 | – | – |
| Cc1c(-c2[nH]c3cnc(C4CCC(NC5CCOCC5)CC4)c(C)c3c2C(C)C)cn2ncnc2c1C (stereo not drawn) [Example 120] | 2.3 | 71 | 2 | – | – |
| COc1cc(-c2[nH]c3cnc(C4CCC(NCC(C)(C)C)CC4)c(F)c3c2C(C)C)cn2ncnc12 (stereo not drawn) [Example 229] | 8.7 | – | – | 1460 | 4.2 |
| COc1cc(-c2[nH]c3cnc(C4CCC(NCC5(C)COC5)C4)cc3c2C(C)C)cn2ncnc12 (stereo not drawn) [Example 59] | 15 | 197 | 4.7 | – | – |
| Cc1c(-c2[nH]c3cnc(N4CCC(N5CC6(COC6)C5)CC4)c(F)c3c2C(C)C)cn2ncnc2c1C [Example 111] | 1 | 3000 | 0.48 | – | – |
| COc1cc(-c2[nH]c3cnc(C4CCC(N(CC#N)C5COC5)CC4)c(F)c3c2C(C)C)cn2ncnc12 (stereo not drawn) [Example 115] | 1.4 | 15800 | 2.4 | – | – |
| COc1cc(-c2[nH]c3cnc(N4CCC(NC5CCOCC5)CC4)c(C)c3c2C(C)C)cn2ncnc12 [Example 201] | 0.49 | 1790 | 0.52 | – | – |
| Cc1c(N2CCC(NC3COC3)CC2)ncc2[nH]c(-c3cc(C)c4ncnn4c3)c(C(C)C)c12 [Example 140] | 0.53 | 3050 | 1.4 | – | – |
| Cc1c(N2CCC(NCC(C)(C)C)CC2)ncc2[nH]c(-c3cc(C)c4ncnn4c3)c(C(C)C)c12 [Example 112] | 1.6 | 1880 | 2.3 | – | – |
| CNC(=O)CN1CCC(c2cc3c(C(C)C)c(-c4cn5ncnc5c(C)c4C)[nH]c3cn2)CC1 [Example 27] | 49 | 477 | 86 | – | – |
